Experimental data from US10766872B2, “Compounds for the treatment of mycobacterial infections” (The Broad Institute, Inc., priority 2011, dated 2020).
Counter-ions that a name gives are not always drawn.

System: Mtb strain H37Rv
Test: Antitubercular activity, OD600 based growth inhibition assay (IC90)
Type: cell-based, Mycobacterium tuberculosis
Conditions: Mtb H37Rv, 7 days incubation, growth read by OD600; concentration giving 90% inhibition of growth of the control; read-out: IC90

| SMILES | IC90 [µM] |
| --- | --- |
| CCOC(=O)Nc1cccc(-c2cc(=O)oc3cc(C)c(-c4ccc(CN5CCOCC5)cc4)c(C)c23)c1 [Compound 12, Ethyl (3-(5,7-dimethyl-6-(4-(morpholinomethyl)phenyl)-2-oxo-2H-chromen-4-yl)phenyl)carbamate] | 10 to 50 |
| Cc1cc2oc(=O)cc(-c3ccccc3)c2c(C)c1-c1ccc(CO)cc1 [Compound 20] | 0.001 to 10 |
| CCOC(=O)Nc1cccc(-c2cc(=O)oc3cc(C)c(-c4ccc(CN5CCOCC5)cc4)c(C)c23)c1 [Compound 43] | > 100 |
| Cc1cc2oc(=O)cc(-c3ccccc3)c2c(C)c1-c1ccc(CO)cc1 [Compound 50] | > 100 |

Same assay, conditions: Mycobacterium tuberculosis, H37RV, 168 h

| SMILES | IC90 [µM] |
| --- | --- |
| Cc1cc2oc(=O)cc(-c3cccc(N)c3)c2c(C)c1-c1ccc(CN2CCOCC2)cc1 [Compound 6, 4-(3-Aminophenyl)-5,7-dimethyl-6-(4-(morpholinomethyl)phenyl)-2H-chromen-2-one hydrochloride] | 0.001 to 10 |

Same assay, conditions: Mycobacterium tuberculosis, H37RV, 168 h, Mtb H37Rv, 7 days incubation, growth read by OD600; concentration giving 90% inhibition of growth of the control; read-out: IC90

| SMILES | IC90 [µM] |
| --- | --- |
| Cc1cc2oc(=O)cc(-c3ccccc3)c2c(C)c1-c1ccc(CN2CCOCC2)cc1 [Compound 1, 5,7-Dimethyl-6-(4-(morpholinomethyl)phenyl)-4-phenyl-2H-chromen-2-one] | 0.001 to 10 |
| Cc1cc2oc(=O)cc(-c3ccccc3)c2c(C)c1-c1ccc(CN2CCCCC2)cc1 [Compound 2, 5,7-Dimethyl-4-phenyl-6-(4-(piperidine-1-ylmethyl)phenyl)-2H-chromen-2-one] | 10 to 50 |
| Cc1cc2oc(=O)cc(-c3ccccc3)c2c(C)c1-c1ccc(CNC2CCCCC2)cc1 [Compound 3, 6-(4-((Cyclohexylamino)methyl)phenyl)-5,7-dimethyl-4-phenyl-2H-chromen-2-one] | 0.001 to 10 |
| CCCCCCNCc1ccc(-c2c(C)cc3oc(=O)cc(-c4ccccc4)c3c2C)cc1 [Compound 4, 6-(4-((Hexylamino)methyl)phenyl)-5,7-dimethyl-4-phenyl-2H-chromen-2-one] | 0.001 to 10 |
| Cc1cc2oc(=O)cc(-c3ccccc3)c2c(C)c1-c1ccc(CN2CCN(C)CC2)cc1 [Compound 5, 5,7-Dimethyl-6-(4-((4-methylpiperazin-1-yl)methyl)phenyl)-4-phenyl-2H-chromen-2-one] | 0.001 to 10 |
| Cc1cc2oc(=O)cc(-c3ccc(N)cc3)c2c(C)c1-c1ccc(CN2CCOCC2)cc1 [Compound 7, 4-(4-Aminophenyl)-5,7-dimethyl-6-(4-(morpholinomethyl)phenyl)-2H-chromen-2-one] | 10 to 50 |
| Cc1cc2oc(=O)cc(-c3cccc([N+](=O)[O-])c3)c2c(C)c1-c1ccc(CN2CCOCC2)cc1 [Compound 8, 5,7-Dimethyl-6-(4-(morpholinomethyl)phenyl)-4-(3-nitrophenyl)-2H-chromen-2-one] | 0.001 to 10 |
| COC(=O)c1cccc(-c2cc(=O)oc3cc(C)c(-c4ccc(CN5CCOCC5)cc4)c(C)c23)c1 [Compound 9, Methyl 3-(5,7-dimethyl-6-(4-(morpholinomethyl)phenyl)-2-oxo-2H-chromen-4-yl)benzoate] | 50 to 100 |
| CC(=O)Nc1cccc(-c2cc(=O)oc3cc(C)c(-c4ccc(CN5CCOCC5)cc4)c(C)c23)c1 [Compound 10, N-(3-(5,7-dimethyl-6-(4-(morpholinomethyl)phenyl)-2-oxo-2H-chromen-4-yl)phenyl)acetamide] | 10 to 50 |
| Cc1cc2oc(=O)cc(-c3cccc(NS(C)(=O)=O)c3)c2c(C)c1-c1ccc(CN2CCOCC2)cc1 [Compound 11, N-(3-(5,7-dimethyl-6-(4-(morpholinomethyl)phenyl)-2-oxo-2H-chromen-4-yl)phenyl)methanesulfonamide] | 50 to 100 |
| Cc1cc2oc(=O)cc(-c3cccnc3)c2c(C)c1-c1ccc(CN2CCOCC2)cc1 [Compound 13, 5,7-Dimethyl-6-(4-(morpholinomethyl)phenyl)-4-(pyridin-3-yl)-2H-chromen-2-one] | 0.001 to 10 |
| Cc1cc2oc(=O)cc(-c3ccccc3)c2c(C)c1-c1ccc(C#N)cc1 [Compound 14] | > 100 |
| Cc1ccc(-c2c(C)cc3oc(=O)cc(-c4ccccc4)c3c2C)cc1 [Compound 15] | 10 to 50 |
| COc1ccc(-c2c(C)cc3oc(=O)cc(-c4ccccc4)c3c2C)cc1 [Compound 16] | > 100 |
| COc1ccccc1-c1c(C)cc2oc(=O)cc(-c3ccccc3)c2c1C [Compound 17] | > 100 |
| COc1cccc(-c2c(C)cc3oc(=O)cc(-c4ccccc4)c3c2C)c1 [Compound 18] | 10 to 50 |
| Cc1cc2oc(=O)cc(-c3ccccc3)c2c(C)c1-c1ccc(O)cc1 [Compound 19] | > 100 |
| Cc1cc(CO)ccc1-c1c(C)cc2oc(=O)cc(-c3ccccc3)c2c1C [Compound 21] | 10 to 50 |
| Cc1cc2oc(=O)cc(-c3ccccc3)c2c(C)c1-c1ccc(CS)cc1 [Compound 22] | > 100 |
| C=Cc1ccc(-c2c(C)cc3oc(=O)cc(-c4ccccc4)c3c2C)cc1 [Compound 23] | > 100 |
| CCc1ccc(-c2c(C)cc3oc(=O)cc(-c4ccccc4)c3c2C)cc1 [Compound 24] | > 100 |
| Cc1cc2oc(=O)cc(-c3ccccc3)c2c(C)c1-c1ccc(Cl)cc1 [Compound 25] | 50 to 100 |

| SMILES | IC90 [µM] |
| --- | --- |
| Cc1cc2oc(=O)cc(-c3ccccc3)c2c(C)c1-c1cccc(Cl)c1 [Compound 26] | > 100 |
| Cc1cc2oc(=O)cc(-c3ccccc3)c2c(C)c1-c1ccccc1Cl [Compound 27] | 10 to 50 |
| Cc1cc2oc(=O)cc(-c3ccccc3)c2c(C)c1-c1ccc(F)cc1 [Compound 28] | 10 to 50 |
| Cc1cc2oc(=O)cc(-c3ccccc3)c2c(C)c1-c1cccc(F)c1 [Compound 29] | 10 to 50 |
| Cc1cc2oc(=O)cc(-c3ccccc3)c2c(C)c1-c1ccc(C(F)(F)F)cc1 [Compound 30] | 10 to 50 |
| Cc1cc2oc(=O)cc(-c3ccccc3)c2c(C)c1-c1cccc(C(F)(F)F)c1 [Compound 31] | > 100 |
| CC(=O)c1ccc(-c2c(C)cc3oc(=O)cc(-c4ccccc4)c3c2C)cc1 [Compound 32] | > 100 |
| Cc1cc2oc(=O)cc(-c3ccccc3)c2c(C)c1-c1ccc(C(C)O)cc1 (stereo not shown) [Compound 33] | 0.001 to 10 |
| CNC(=O)c1ccc(-c2c(C)cc3oc(=O)cc(-c4ccccc4)c3c2C)cc1 [Compound 34] | 0.001 to 10 |
| Cc1cc2oc(=O)cc(-c3ccccc3)c2c(C)c1-c1ccncc1 [Compound 35] | 0.001 to 10 |
| Cc1cnccc1-c1c(C)cc2oc(=O)cc(-c3ccccc3)c2c1C [Compound 36] | 10 to 50 |
| Cc1cc2oc(=O)cc(-c3ccccc3)c2c(C)c1-c1cccnc1 [Compound 37] | 50 to 100 |
| COc1ncc(-c2c(C)cc3oc(=O)cc(-c4ccccc4)c3c2C)cn1 [Compound 38] | > 100 |
| COc1ncc(-c2c(C)cc3oc(=O)cc(-c4ccccc4)c3c2C)c(OC)n1 [Compound 39] | 10 to 50 |
| Cc1cc2oc(=O)cc(-c3ccccc3)c2c(C)c1-c1cnc(C)c2ccccc12 [Compound 40] | > 100 |
| Cc1cc2oc(=O)cc(-c3ccccc3)c2c(C)c1-c1cncnc1 [Compound 41] | 0.001 to 10 |
| Cc1ccc(/C=C/c2c(C)cc3oc(=O)cc(-c4ccccc4)c3c2C)cc1 [Compound 42] | 50 to 100 |
| COc1ccc(-c2cc(=O)oc3cc(C)c(-c4ccc(CN5CCOCC5)cc4)c(C)c23)cc1 [Compound 44] | > 100 |
| Cc1ccc(-c2ccc3oc(=O)cc(-c4ccccc4)c3c2)cc1 [Compound 45] | > 100 |
| O=c1cc(-c2ccccc2)c2cc(-c3ccc(CO)cc3)ccc2o1 [Compound 47] | > 100 |
| Cc1cc2oc(=O)cc(-c3ccccc3)c2cc1-c1ccc(CO)cc1 [Compound 48] | 50 to 100 |
| Cc1c(-c2ccc(CO)cc2)ccc2oc(=O)cc(-c3ccccc3)c12 [Compound 49] | 50 to 100 |
